Calls of active or inactive are those of the source. No cut-off for these calls is given here.
Experiments:
[1] = target: NACHT, LRR and PYD domains-containing protein 3 (Mus musculus) (UniProt Q8R4B8); assay: (§1) Inhibition of NLRP3 inflammasome activation in LPS/nigericin-treated C57BL/6 mouse bone marrow-derived macrophages assessed as reduction in NEK7-NLRP3 protein-protein interaction at 2 to 4 uM preincubated for 3 hrs with LPS and for 30 mins with compound prior to nigericin addition and measured after 30 mins by immunoprecipitation method; format: cell-based; conditions: BMDM, dose 2-4 µM, time 60.0 min
[2] = target: NACHT, LRR and PYD domains-containing protein 3 (Mus musculus) (UniProt Q8R4B8); assay: Inhibition of NLRP3 inflammasome activation in LPS-stimulated mouse J774.A1 cells assessed as reduction in pyroptosis pretreated for 4 hrs with LPS and for 30 mins with compound prior to ATP addition and measured after 30 mins by PI/Hoechst33342 staining based analysis; format: cell-based; conditions: dose 2.5-10 µM, time 60.0 min, DDE = dose-dependent effect
[3] = target: NACHT, LRR and PYD domains-containing protein 3 (Mus musculus) (UniProt Q8R4B8); assay: (§2) Inhibition of NLRP3 inflammasome activation in LPS/MSU-treated C57BL/6 mouse bone marrow-derived macrophages assessed as reduction in cleaved IL-1 beta level in culture supernatants preincubated for 3 hrs with LPS and for 30 mins with compound prior to MSU addition and measured after 30 mins by Western blot analysis; format: cell-based; conditions: BMDM, time 60.0 min
[4] = test system: Mus musculus; assay: Anti-colitis activity against DSS-induced colitis C57BL/6 mouse model assessed as reduction in IL-1 beta level in colon at 10 to 20 mg/kg, po administered once a day and measured on day 8 by ELISA; format: functional, organism-based; conditions: dose 10-20 mg/kg, time 8.0 day
[5] = target: NACHT, LRR and PYD domains-containing protein 3 (Mus musculus) (UniProt Q8R4B8); assay: (§3) Inhibition of NLRP3 inflammasome activation in LPS/nigericin-treated C57BL/6 mouse bone marrow-derived macrophages assessed as reduction in IL-1beta secretion preincubated for 3 hrs with LPS and for 30 mins with compound prior to nigericin addition and measured after 30 mins by ELISA; format: cell-based; conditions: BMDM, time 60.0 min, DDE = dose-dependent effect
[6] = target: NACHT, LRR and PYD domains-containing protein 3 (Mus musculus, UniProt Q8R4B8); assay: as §3; format: cell-based, BMDM
[7] = Metabolic stability in human hepatocytes assessed as intrinsic clearance by LC-MS/MS analysis; format: ADME, cell-based, Hepatocyte; conditions: read-out: CLH
[8] = target: NACHT, LRR and PYD domains-containing protein 3 (Mus musculus) (UniProt Q8R4B8); assay: as §2, with “activated caspase 1(P20)” for “cleaved IL-1 beta”; format: cell-based; conditions: BMDM, time 60.0 min
[9] = test system: Mus musculus; assay: Anti-colitis activity against DSS-induced colitis C57BL/6 mouse model assessed as reduction in body weight loss at 10 to 20 mg/kg, po administered once a day; format: functional, organism-based; conditions: dose 10-20 mg/kg
[10] = Metabolic stability in human liver microsomes assessed as intrinsic clearance by LC-MS/MS analysis; format: ADME, Microsome; conditions: read-out: CLH
[11] = target: NACHT, LRR and PYD domains-containing protein 3 (Mus musculus) (UniProt Q8R4B8); assay: as §1, with “ASC-NLRP3” for “NEK7-NLRP3”; format: cell-based; conditions: BMDM, dose 2-4 µM, time 60.0 min
[12] = target: NACHT, LRR and PYD domains-containing protein 3 (Mus musculus) (UniProt Q8R4B8); assay: as §2, with “LPS/ATP-treated” for “LPS/MSU-treated”, “activated caspase 1(P20)” for “cleaved IL-1 beta”, “cell lysates” for “culture supernatants”, “ATP” for “MSU”; format: subcellular; conditions: BMDM, time 60.0 min
[13] = Inhibition of LPS/nigericin-induced reactive oxygen species production in C57BL/6 mouse bone marrow-derived macrophages assessed as ROS level at 2 uM by DCFH-DA staining based flow cytometry (reference value: 33.51%); format: functional, BMDM; design: scale not given: the % may be the effect or the level left
[14] = target: NACHT, LRR and PYD domains-containing protein 3 (Mus musculus) (UniProt Q8R4B8); assay: Binding affinity to NLRP3 in mouse J774.A1 cell lysates assessed as reduction in protein degradation at 50 uM incubated at 48 to 78 degC by CETSA; format: subcellular
[15] = target: NACHT, LRR and PYD domains-containing protein 3 (Mus musculus) (UniProt Q8R4B8); assay: as §2, with “LPS/nigericin-treated” for “LPS/MSU-treated”, “activated caspase 1(P20)” for “cleaved IL-1 beta”, “nigericin” for “MSU”; format: cell-based; conditions: BMDM, dose 0.5-2 µM, time 60.0 min, DDE = dose-dependent effect
[16] = Metabolic stability in human liver microsomes assessed as half life by LC-MS/MS analysis; format: ADME, Microsome
[17] = test system: Mus musculus; assay: Anti-colitis activity against DSS-induced colitis C57BL/6 mouse model assessed as reduction in decrease of goblet cells in colon at 10 to 20 mg/kg, po administered once a day and measured on day 8 by H and E staining based analysis; format: functional, organism-based; conditions: dose 10-20 mg/kg, time 8.0 day
[18] = target: NACHT, LRR and PYD domains-containing protein 3 (Mus musculus) (UniProt Q8R4B8); assay: as §2, with “activated caspase 1(P20)” for “cleaved IL-1 beta”, “cell lysates” for “culture supernatants”; format: subcellular; conditions: BMDM, time 60.0 min
[19] = target: NACHT, LRR and PYD domains-containing protein 3 (Mus musculus) (UniProt Q8R4B8); assay: as §2, with “LPS/ATP-treated” for “LPS/MSU-treated”, “ATP” for “MSU”; format: cell-based; conditions: BMDM, time 60.0 min
[20] = test system: Mus musculus; assay: Anti-colitis activity against DSS-induced colitis C57BL/6 mouse model assessed as reduction in colon shortening at 10 to 20 mg/kg, po administered once a day; format: functional, organism-based; conditions: dose 10-20 mg/kg
[21] = target: NACHT, LRR and PYD domains-containing protein 3 (Mus musculus) (UniProt Q8R4B8); assay: Inhibition of NLRP3 inflammasome activation in LPS/ATP-treated C57BL/6 mouse bone marrow-derived macrophages assessed as reduction in IL-1beta secretion preincubated for 3 hrs with LPS and for 30 mins with compound prior to ATP addition and measured after 30 mins by ELISA; format: cell-based; conditions: BMDM, time 60.0 min
[22] = test system: Mus musculus; assay: Anti-colitis activity against DSS-induced colitis C57BL/6 mouse model assessed as reduction in disease activity index administered po once a day; format: functional, organism-based; conditions: dose 10-20 mg/kg, DDE = dose-dependent effect
[23] = target: NACHT, LRR and PYD domains-containing protein 3 (Mus musculus) (UniProt Q8R4B8); assay: Inhibition of NLRP3 inflammasome activation in LPS/MSU-treated C57BL/6 mouse bone marrow-derived macrophages assessed as reduction in IL-1beta secretion preincubated for 3 hrs with LPS and for 30 mins with compound prior to MSU addition and measured after 30 mins by ELISA; format: cell-based; conditions: BMDM, time 60.0 min
[24] = test system: Mus musculus; assay: Anti-colitis activity against DSS-induced colitis C57BL/6 mouse model assessed as reduction in IL-6 level in colon at 10 to 20 mg/kg, po administered once a day and measured on day 8 by ELISA; format: functional, organism-based; conditions: dose 10-20 mg/kg, time 8.0 day
[25] = target: NACHT, LRR and PYD domains-containing protein 3 (Mus musculus) (UniProt Q8R4B8); assay: as §3, with “inhibition of ASC oligomerization” for “reduction in IL-1beta secretion”, “Western blot analysis” for “ELISA”; format: cell-based; conditions: BMDM, dose 0.5-2 µM, time 60.0 min, DDE = dose-dependent effect
[26] = target: NACHT, LRR and PYD domains-containing protein 3 (Mus musculus) (UniProt Q8R4B8); assay: as §2, with “LPS/ATP-treated” for “LPS/MSU-treated”, “activated caspase 1(P20)” for “cleaved IL-1 beta”, “ATP” for “MSU”; format: cell-based; conditions: BMDM, time 60.0 min
[27] = target: NACHT, LRR and PYD domains-containing protein 3 (Mus musculus) (UniProt Q8R4B8); assay: Inhibition of NLRP3 inflammasome activation in LPS-stimulated mouse J774.A1 cells assessed as reduction in pyroptosis at 10 uM pretreated for 4 hrs with LPS and for 30 mins with compound prior to ATP addition and measured after 30 mins by PI/Hoechst33342 staining based analysis; format: cell-based; conditions: time 60.0 min
[28] = test system: Mus musculus; assay: Anti-colitis activity against DSS-induced colitis C57BL/6 mouse model assessed as reduction in pathological index score of colon at 10 to 20 mg/kg, po administered once a day and measured on day 8 by H and E staining based analysis; format: functional, organism-based; conditions: dose 10-20 mg/kg, time 8.0 day
[29] = target: NACHT, LRR and PYD domains-containing protein 3 (Homo sapiens, UniProt Q96P20); assay: Binding affinity to GFP-fused NLRP3 (unknown origin) expressed in HEK293T cells by MST assay; format: cell-based
[30] = test system: Mus musculus; assay: Anti-colitis activity against DSS-induced colitis C57BL/6 mouse model assessed as reduction in TNF-alpha level in colon at 10 to 20 mg/kg, po administered once a day and measured on day 8 by ELISA; format: functional, organism-based; conditions: dose 10-20 mg/kg, time 8.0 day
[31] = target: NACHT, LRR and PYD domains-containing protein 3 (Mus musculus) (UniProt Q8R4B8); assay: as §2, with “LPS/nigericin-treated” for “LPS/MSU-treated”, “nigericin” for “MSU”; format: cell-based; conditions: BMDM, dose 0.5-2 µM, time 60.0 min, DDE = dose-dependent effect
[32] = target: NACHT, LRR and PYD domains-containing protein 3 (Mus musculus) (UniProt Q8R4B8); assay: Inhibition of NLRP3 inflammasome activation in LPS/nigericin-treated C57BL/6 mouse bone marrow-derived macrophages assessed as reduction in activated caspase 1(P20) level in cell lysates at 0.5 to 2 uM preincubated for 3 hrs with LPS and for 30 mins with compound prior to nigericin addition and measured after 30 mins by Western blot analysis; conditions: BMDM, dose 0.5-2 µM, time 60.0 min, DDE = dose-dependent effect
[33] = Cytotoxicity against human L02 cells assessed as reduction in cell viability incubated for 24 hrs by MTT assay; format: toxicity, cell-based
[34] = Inhibition of LPS/nigericin-induced reactive oxygen species production in C57BL/6 mouse bone marrow-derived macrophages assessed as ROS level at 4 uM by DCFH-DA staining based flow cytometry (reference value: 33.51%); format: functional, BMDM; design: scale not given: the % may be the effect or the level left
[35] = Inhibition of LPS/nigericin-induced reactive oxygen species production in C57BL/6 mouse bone marrow-derived macrophages assessed as ROS level at 1 uM by DCFH-DA staining based flow cytometry (reference value: 33.51%); format: functional, BMDM; design: scale not given: the % may be the effect or the level left

Sequence of NACHT, LRR and PYD domains-containing protein 3 (Mus musculus) (Q8R4B8 whole entry, the tested form may be a part): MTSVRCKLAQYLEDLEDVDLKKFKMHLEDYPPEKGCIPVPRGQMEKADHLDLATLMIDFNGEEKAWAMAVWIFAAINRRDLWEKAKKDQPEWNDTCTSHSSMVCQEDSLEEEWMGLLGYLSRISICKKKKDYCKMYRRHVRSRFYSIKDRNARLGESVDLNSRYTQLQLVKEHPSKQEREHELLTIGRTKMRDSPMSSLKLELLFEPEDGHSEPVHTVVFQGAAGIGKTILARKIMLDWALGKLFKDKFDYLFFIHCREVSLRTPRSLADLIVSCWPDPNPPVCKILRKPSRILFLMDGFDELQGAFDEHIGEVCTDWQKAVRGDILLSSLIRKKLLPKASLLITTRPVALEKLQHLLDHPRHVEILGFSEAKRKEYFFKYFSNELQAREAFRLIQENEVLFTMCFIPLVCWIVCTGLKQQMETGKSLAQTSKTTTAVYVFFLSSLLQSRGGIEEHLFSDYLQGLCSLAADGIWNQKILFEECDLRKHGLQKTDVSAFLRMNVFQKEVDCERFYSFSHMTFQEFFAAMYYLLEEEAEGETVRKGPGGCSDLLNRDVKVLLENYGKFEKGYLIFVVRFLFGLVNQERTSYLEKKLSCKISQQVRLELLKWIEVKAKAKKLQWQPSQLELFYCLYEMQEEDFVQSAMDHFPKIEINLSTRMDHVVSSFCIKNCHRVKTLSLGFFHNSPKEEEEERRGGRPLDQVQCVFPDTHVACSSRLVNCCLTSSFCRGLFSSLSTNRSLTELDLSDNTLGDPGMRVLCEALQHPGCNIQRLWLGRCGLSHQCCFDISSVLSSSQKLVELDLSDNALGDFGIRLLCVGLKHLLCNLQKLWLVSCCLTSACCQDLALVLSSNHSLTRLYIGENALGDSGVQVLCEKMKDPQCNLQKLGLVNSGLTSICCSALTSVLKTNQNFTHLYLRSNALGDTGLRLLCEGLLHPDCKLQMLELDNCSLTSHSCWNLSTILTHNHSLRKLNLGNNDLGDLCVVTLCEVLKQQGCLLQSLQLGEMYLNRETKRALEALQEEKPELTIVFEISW
Sequence of NACHT, LRR and PYD domains-containing protein 3 (Mus musculus, UniProt Q8R4B8) (Q8R4B8 whole entry, the tested form may be a part): as above
Sequence of NACHT, LRR and PYD domains-containing protein 3 (Homo sapiens, UniProt Q96P20) (Q96P20 whole entry, the tested form may be a part): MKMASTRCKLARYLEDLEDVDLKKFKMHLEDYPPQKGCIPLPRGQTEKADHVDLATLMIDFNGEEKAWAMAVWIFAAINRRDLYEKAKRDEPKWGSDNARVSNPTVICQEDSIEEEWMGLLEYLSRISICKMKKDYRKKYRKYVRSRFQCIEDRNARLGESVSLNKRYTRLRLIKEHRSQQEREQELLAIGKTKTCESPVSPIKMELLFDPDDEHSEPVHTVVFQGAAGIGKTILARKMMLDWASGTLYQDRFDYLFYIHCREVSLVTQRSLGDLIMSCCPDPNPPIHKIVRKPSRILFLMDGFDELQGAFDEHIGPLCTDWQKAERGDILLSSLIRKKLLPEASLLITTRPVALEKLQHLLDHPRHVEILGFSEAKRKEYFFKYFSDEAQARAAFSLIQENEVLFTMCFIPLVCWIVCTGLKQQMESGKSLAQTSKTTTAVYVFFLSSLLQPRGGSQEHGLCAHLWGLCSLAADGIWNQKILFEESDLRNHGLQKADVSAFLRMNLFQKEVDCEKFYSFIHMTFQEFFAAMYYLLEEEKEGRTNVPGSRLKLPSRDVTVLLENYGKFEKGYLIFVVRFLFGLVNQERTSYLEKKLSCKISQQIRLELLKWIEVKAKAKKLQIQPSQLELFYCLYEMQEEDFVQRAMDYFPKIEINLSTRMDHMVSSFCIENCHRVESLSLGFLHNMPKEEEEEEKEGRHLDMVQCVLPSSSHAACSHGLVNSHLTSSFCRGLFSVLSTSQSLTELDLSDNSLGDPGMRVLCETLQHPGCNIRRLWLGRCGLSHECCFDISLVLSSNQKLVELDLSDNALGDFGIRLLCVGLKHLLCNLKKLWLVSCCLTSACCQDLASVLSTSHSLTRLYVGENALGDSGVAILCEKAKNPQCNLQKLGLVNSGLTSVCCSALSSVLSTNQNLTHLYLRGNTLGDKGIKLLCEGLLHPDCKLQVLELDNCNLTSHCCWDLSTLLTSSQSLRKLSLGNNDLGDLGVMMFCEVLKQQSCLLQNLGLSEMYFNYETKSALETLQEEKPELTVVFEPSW

COc1cc(/C=C/c2ccc(NC(=O)c3ccco3)cc2)c(/C=C/[N+](=O)[O-])c(OC)c1
inhibition [1]: Active
inhibition [2]: Dde
inhibition [3]: Active
Activity [4]: Active
inhibition [5]: Dde
IC50 [6]: 1230 nM
CLint scaled [7]: 7.4 mL/min/kg
inhibition [8]: Active
Activity [9]: Active
microsomal CLint [10]: 10 µL/min/mg
inhibition [11]: Active
inhibition [12]: Active
Activity [13]: 29.79%
inhibition [14]: Active
inhibition [15]: Dde
half-life [16]: 2.31 h
Activity [17]: Active
inhibition [18]: Active
inhibition [19]: Active
Activity [20]: Active
inhibition [21]: Active
Activity [22]: Dde
inhibition [23]: Active
Activity [24]: Active
inhibition [25]: Dde
inhibition [26]: Active
inhibition [27]: 70.8%
Activity [28]: Active
Kd [29]: 213 nM
Activity [30]: Active
inhibition [31]: Dde
inhibition [32]: Dde
IC50 at 24 h [33]: > 100000 nM
Activity [34]: 29.01%
Activity [35]: 30.5%
